Holding throughout (assay): MIC, broth micro-dilution technique (CLSI)
Background: In broth dilution the organism is exposed to a series of concentrations in liquid medium.

For one experiment, the system named is MRSA COL (NRS100). It counts as cell-based, Staphylococcus aureus. To be noted: Staphylococcus aureus, 22 h, read-out: MIC (μg/mL) (COL). The method, then: (§1) In vitro antimicrobial activity of each compound was determined by measuring minimal inhibitor concentrations (MICs) using the broth micro-dilution technique as approved by the Clinical and Laboratory Standards Institute (CLSI) (Methods for Dilution Antimicrobial Susceptibility Tests for Bacteria that Grow Aerobically; Approved Standard—Eighth Edition. CLSI document M07-A8. Wayne, Pa.: Clinical and Laboratory Standards; 2009). Antibacterial activity was measured against three strains of bacteria: a Methicillin Resistant Staphylococcus aureus strain USA 300 (NRS384); a MRSA COL (NRS100), another Methicillin Resistant Staphylococcus aureus strain; and a strain of Escherichia coli MC4100 harboring the IMP4213, which results in increased outer-membrane permeability (B Martin and Silhavy T. Imp/OstA is required for cell envelope biogenesis in Escherichia coli. (2002) Molecular Microbiology, 45(5), 1289-1302). Cells were inoculated onto plates of Trypyticase Soy Agar or Luria Agar respectively and grown at 35° C. for 20 hours. Inocula suspensions were prepared by scraping cells into 1 ml of testing media (cation adjusted Mueller Hinton Broth supplemented with 0.002% v/v Tween-80) and diluting to a final OD600 nm of 0.01.
(§2) Test compounds were prepared in DMSO at a concentration of 10 mg/ml. These compound stocks were diluted into testing media at a concentration of 64 μg/ml and serial 2-fold dilutions were made in the same media, in 96-well U bottom microtiter dishes, for a total of 10 compound concentrations (Table 1). In modified protocols (Table 2), compound stocks were diluted into testing media at a concentration of 4 μg/mL and serial 2-fold dilutions were made in the same media, in 96-well U bottom microtiter dishes, for a total of 10 compound concentrations. Inocula suspensions were added to the 2-fold serial dilutions of test compounds to a final density of OD OD600 nm of 0.0005 and incubated at 35° C. for 22 hours. […] The results from the protocol starting from a concentration of 64 µg/mL are listed in Table 1 and the results from the modified protocol are shown in Table 2.

The test system of experiment [1] is Methicillin Resistant Staphylococcus aureus strain USA 300 (NRS384). It counts as cell-based. To be noted: for MIC: Staphylococcus aureus, 22 h, read-out: MIC (μg/mL) S. aureus. On the procedure: as §1, §2
The test system of experiment [2] is Escherichia coli MC4100 harboring the IMP4213. It counts as cell-based. To be noted: 35° C., 22 hours; for MIC: Escherichia coli, 22 h, read-out: MIC (μg/mL) E. coli, Table 1 protocol: serial 2-fold dilutions starting from 64 μg/ml; for MIC (μg/mL) E. coli: Table 1 protocol: serial 2-fold dilutions starting from 64 μg/ml. On the procedure:
as §1, §2

Where [3] appears, read: Table 1 protocol: serial 2-fold dilutions starting from 64 μg/ml, 35° C., 22 hours.

In brackets after ≈: the same amount, converted by molar mass. Read-outs that look alike come from different tables or passages of the source.

Take `C[C@H](NCC(=O)[C@H](C)NC(=O)[C@@H]1Cc2ccc(O)c(c2)-c2cc(ccc2O)[C@H](N(C)C(=O)[C@H](CCCCN)NC(=O)c2ccc(-c3ccc(Cl)cc3)cc2)C(=O)N[C@@H](C)C(=O)N1)C(N)=O` [Compound 125]: the MIC in the experiment on MRSA COL (NRS100) was determined as 8 µg/mL (≈ 8.78 µM); in experiment [1] it was 32 µg/mL (≈ 35.1 µM).
On to `C[C@@H]1NC(=O)[C@@H](N(C)C(=O)[C@H](CCCCN)NC(=O)c2ccc(-c3ccc(Cl)cc3)cc2)c2ccc(O)c(c2)-c2cc(ccc2O)C[C@@H](C(=O)N[C@@H](C)C(=O)N2C[C@H]3C[C@H]3[C@H]2C(N)=O)NC1=O` [Compound 170], for which the results for the MIC in experiment [1] (setting [3]) and in experiment [2] were 45 µg/mL (≈ 48.1 µM) and 64 µg/mL (≈ 68.4 µM), respectively.
Turning to `C[C@@H]1NC(=O)[C@@H](N(C)C(=O)[C@H](CCCCN)NC(=O)c2ccc(-c3ccc(Cl)cc3)cc2)c2ccc(O)c(c2)-c2cc(ccc2O)C[C@@H](C(=O)N[C@@H](C)C(=O)N2CC(F)(F)C[C@H]2C(N)=O)NC1=O` [Compound 174], the MIC in experiment [1] (setting [3]) was found to be 9.5 µg/mL (≈ 9.9 µM); in experiment [2], 64 µg/mL (≈ 66.7 µM).
On to `C[C@@H]1NC(=O)[C@@H](N(C)C(=O)[C@H](CCCCN)NC(=O)c2ccc(-c3ccc(Cl)cc3)cc2)c2ccc(O)c(c2)-c2cc(ccc2O)C[C@@H](C(=O)N[C@@H](C)C(=O)N2CCCC2)NC1=O` [Compound 156], for which the MIC in experiment [1] was above 64 µg/mL; in experiment [2], 51 µg/mL (≈ 57.9 µM).
As to `CC(=O)[C@H](C)NC(=O)[C@@H]1Cc2ccc(O)c(c2)-c2cc(ccc2OCCN2CCOCC2)[C@H](N(C)C(=O)[C@H](CCCCN)NC(=O)c2ccc(-c3ccc(Cl)cc3)cc2)C(=O)N[C@@H](C)C(=O)N1` [Compound 203], the MIC in the experiment with MRSA COL (NRS100) (setting [3]) came out at 8 µg/mL (≈ 8.52 µM); in experiment [1] (setting [3]), 23 µg/mL (≈ 24.5 µM).
Take `C[C@H](NC(=O)[C@@H]1Cc2ccc(O)c(c2)-c2cc(ccc2O)[C@H](N(C)C(=O)[C@H](CCCCN)NC(=O)c2ccc(-c3ccc(Cl)cc3)cc2)C(=O)N[C@@H](C)C(=O)N1)C(=O)/C=C/c1c[nH]cn1` [Compound 131]: the MIC in experiment [1] (setting [3]) and in experiment [2] was above 64 µg/mL each time.
On to `CCCCCCCC(=O)N[C@@H](CCCCN)C(=O)N(C)[C@@H]1C(=O)N[C@@H](C)C(=O)N[C@H](C(=O)N[C@@H](C)C(=O)C2CO2)Cc2ccc(O)c(c2)-c2cc1ccc2O` (stereo partly shown) [Compound 103], for which the MIC in experiment [1] (setting [3]) is 45 µg/mL (≈ 58.8 µM); in experiment [2], 23 µg/mL (≈ 30.1 µM).
Consider `CCCCCCCC(=O)NCCC(=O)N[C@@H](CCCCN)C(=O)N(C)[C@@H]1C(=O)N[C@@H](C)C(=O)N[C@H](C(=O)N[C@@H](C)C(=O)CCl)Cc2ccc(O)c(c2)-c2cc1ccc2O` [Compound 107], for which the figures for the MIC in experiment [1] and in experiment [2] were 64 µg/mL (≈ 76 µM) and above 64 µg/mL, respectively.
In the same order, the values of `C[C@@H]1NC(=O)[C@@H](N(C)C(=O)[C@H](CCCCN)NC(=O)c2ccc(-c3ccc(Cl)cc3)cc2)c2ccc(O)c(c2)-c2cc(cc(Br)c2O)C[C@@H](C(=O)O)NC1=O` [Compound 165] are 45 µg/mL (≈ 53.9 µM) and 11 µg/mL (≈ 13.2 µM).
As for `C[C@H](NC(=O)[C@@H]1Cc2ccc(O)c(c2)-c2cc(ccc2O)[C@H](N(C)C(=O)[C@H](CCCCN)NC(=O)c2ccc(-c3ccc(Cl)cc3)cc2)C(=O)N[C@@H](C)C(=O)N1)C(=O)CCC(N)=O` [Compound 148], the MIC with MRSA COL (NRS100) was 32 µg/mL (≈ 36.3 µM); in experiment [1], 64 µg/mL (≈ 72.5 µM).
In the case of `CC1OC1C(=O)[C@H](C)NC(=O)[C@@H]1Cc2ccc(O)c(c2)-c2cc(ccc2O)[C@H](N(C)C(=O)[C@H](CCCCN)NC(=O)c2ccc(-c3ccc(Cl)cc3)cc2)C(=O)N[C@@H](C)C(=O)N1` (stereo partly shown) [Compound 106], the “MIC (μg/mL) S. aureus” value in experiment [1] (setting [3]) is 5.7 µg/mL (≈ 6.57 µM). The “MIC (μg/mL) E. coli” value in experiment [2] came to 11 µg/mL (≈ 12.7 µM).
For `CC(O)[C@@H]1Cc2ccc(O)c(c2)-c2cc(ccc2O)[C@H](N(C)C(=O)[C@H](CCCCN)NC(=O)c2ccc(-c3ccc(Cl)cc3)cc2)C(=O)N[C@@H](C)C(=O)N1` (stereo partly shown) [Compound 154], the MIC in experiment [1] and in experiment [2] was 64 µg/mL (≈ 84.6 µM) throughout.
With `C[C@@H]1NC(=O)[C@@H](N(C)C(=O)[C@H](CCCCN)NC(=O)c2ccc(-c3ccc(Cl)cc3)cc2)c2ccc(O)c(c2)-c2cc(ccc2O)C[C@@H](C(=O)NCC(=O)CC2CCNC2=O)NC1=O` (stereo partly shown) [Compound 150], in experiment [1] (setting [3]), the MIC was above 64 µg/mL. Further, the “MIC (μg/mL) E. coli” value in experiment [2] was 8 µg/mL (≈ 8.94 µM).
For the compound `C[C@H](NC(=O)[C@@H]1Cc2ccc(O)c(c2)-c2cc(ccc2O)[C@H](N(C)C(=O)[C@H](CCCCN)NC(=O)c2ccc(-c3ccc(Cl)cc3)cc2)C(=O)N[C@@H](C)C(=O)N1)C(=O)CS(N)(=O)=O` [Compound 143], the MIC in experiment [1] is 6.3 µg/mL (≈ 6.97 µM); in experiment [2] it was 51 µg/mL (≈ 56.4 µM).
Consider `C[C@@H]1NC(=O)[C@@H](N(C)C(=O)[C@H](CCCCN)NC(=O)c2ccc(-c3ccc(Cl)cc3)cc2)c2ccc(O)c(c2)-c2cc(ccc2O)C[C@@H](C(=O)N[C@@H](C)C(=O)N2C[C@H](O)C[C@H]2C(N)=O)NC1=O` [Compound 169], for which the MIC came out at 45 µg/mL (≈ 47.9 µM) in experiment [1] (setting [3]) and 64 µg/mL (≈ 68.1 µM) in experiment [2].
Take `C[C@@H]1NC(=O)[C@@H](N(C)C(=O)[C@H](CCCCN)NC(=O)c2ccc(-c3ccc(Cl)cc3)cc2)c2ccc(O)c(c2)-c2cc(ccc2O)C[C@@H](C(=O)N[C@@H](C)C(=O)N2CC[C@H](O)[C@H]2C(N)=O)NC1=O` [Compound 168]: the MIC in experiment [1] (setting [3]) turned out to be 5.7 µg/mL (≈ 6.07 µM); in experiment [2], 32 µg/mL (≈ 34.1 µM).
Regarding `C[C@@H]1NC(=O)[C@@H](N(C)C(=O)[C@H](CCCCN)NC(=O)c2ccc(-c3ccc(Cl)cc3)cc2)c2ccc(O)c(c2)-c2cc(ccc2O)C[C@@H](C(=O)N[C@@H](C)C(=O)N2C[C@@H](F)C[C@H]2C(N)=O)NC1=O` [Compound 172], the MIC was 16 µg/mL (≈ 17 µM) in experiment [1] (setting [3]) and 64 µg/mL (≈ 68 µM) in experiment [2].
With `CCCCCCCCCCCCCC(=O)N[C@@H](CCN)C(=O)N(C)[C@@H]1C(=O)N[C@@H](C)C(=O)N[C@H](C(=O)O)Cc2ccc(OCCN)c(c2)-c2cc1ccc2OCCN` [Compound 299], the MIC was determined as 0.031 µg/mL (≈ 0.0383 µM) in the experiment on MRSA COL (NRS100) and 0.19 µg/mL (≈ 0.235 µM) in experiment [1].
Take `COC(=O)[C@@H]1CCCN1CC(=O)[C@H](C)NC(=O)[C@@H]1Cc2ccc(O)c(c2)-c2cc(ccc2O)[C@H](N(C)C(=O)[C@H](CCCCN)NC(=O)c2ccc(-c3ccc(Cl)cc3)cc2)C(=O)N[C@@H](C)C(=O)N1` [Compound 126]: the values for the MIC in experiment [1] and in experiment [2] were 32 µg/mL (≈ 33.6 µM) and above 64 µg/mL, respectively.
As to `CCOC(=O)CCC(=O)[C@H](C)NC(=O)[C@@H]1Cc2ccc(O)c(c2)-c2cc(ccc2O)[C@H](N(C)C(=O)[C@H](CCCCN)NC(=O)c2ccc(-c3ccc(Cl)cc3)cc2)C(=O)N[C@@H](C)C(=O)N1` [Compound 146], the figures for the MIC (in the experiment on MRSA COL (NRS100); in experiment [1]) were 8 µg/mL (≈ 8.78 µM) and 16 µg/mL (≈ 17.6 µM), respectively.
In the case of `C[C@@H]1NC(=O)[C@@H](N(C)C(=O)[C@H](CCCCN)NC(=O)c2ccc(-c3ccc(Cl)cc3)cc2)c2ccc(O)c(c2)-c2cc(ccc2O)C[C@@H](C(=O)N[C@@H](C)C(=O)N2CCC[C@H]2CO)NC1=O` [Compound 157], the MIC in experiment [1] was above 64 µg/mL; in experiment [2] it was 45 µg/mL (≈ 49.4 µM).
For `CONC(=O)[C@@H]1CCCN1C(=O)[C@H](C)NC(=O)[C@@H]1Cc2ccc(O)c(c2)-c2cc(ccc2O)[C@H](N(C)C(=O)[C@H](CCCCN)NC(=O)c2ccc(-c3ccc(Cl)cc3)cc2)C(=O)N[C@@H](C)C(=O)N1` [Compound 185], the MIC is 45 µg/mL (≈ 47.2 µM) in experiment [1] and 64 µg/mL (≈ 67.1 µM) in experiment [2].
Take `C[C@@H]1NC(=O)[C@@H](N(C)C(=O)[C@H](CCCCN)NC(=O)c2ccc(-c3ccc(Cl)cc3)cc2)c2ccc(O)c(c2)-c2cc(ccc2O)C[C@@H](C(=O)N[C@@H](C)C(=O)N2CCCC[C@H]2C(N)=O)NC1=O` [Compound 173]: the MIC amounted to 64 µg/mL (≈ 68.3 µM) in experiment [1] (setting [3]) and 32 µg/mL (≈ 34.1 µM) in experiment [2].
In the same order, the values of `C[C@@H]1NC(=O)[C@@H](N(C)C(=O)[C@H](CCCCN)NC(=O)c2ccc(-c3ccc(Cl)cc3)cc2)c2ccc(O)c(c2)-c2cc(ccc2O)C[C@@H](C(=O)N[C@@H](C)C(=O)N2CC[C@H]2C(N)=O)NC1=O` [Compound 171] are 20 µg/mL (≈ 22 µM) and 64 µg/mL (≈ 70.4 µM).
Consider `C[C@@H]1NC(=O)[C@@H](N(C)C(=O)[C@H](CCCCN)NC(=O)c2ccc(-c3ccc(Cl)cc3)cc2)c2ccc(O)c(c2)-c2cc(ccc2O)C[C@@H](C(=O)NCC(=O)CC2CCNC2=O)NC1=O` (stereo partly shown) [Compound 151], for which, in experiment [1] (setting [3]), the “MIC (μg/mL) S. aureus” value is above 64 µg/mL. For the same compound, the “MIC (μg/mL) E. coli” value in experiment [2] was determined as 32 µg/mL (≈ 35.8 µM).
With `CC[C@H](NC(=O)[C@@H]1Cc2ccc(O)c(c2)-c2cc(ccc2O)[C@H](N(C)C(=O)[C@H](CCCCN)NC(=O)c2ccc(-c3ccc(Cl)cc3)cc2)C(=O)N[C@@H](C)C(=O)N1)C(=O)N1CCC[C@H]1C(N)=O` [Compound 181], the MIC in experiment [1] (setting [3]) came to 23 µg/mL (≈ 24.5 µM); in experiment [2], 64 µg/mL (≈ 68.3 µM).
